How the values were obtained:
[1] = tested on: advanced HCC; assay: Phase II multi-center, randomized, double-blind, placebo-controlled study of VT-122 or placebo on a background of stable-dose sorafenib (Example 1); assay type: in vivo, human; details: advanced HCC patients
Procedure: This was a multi-center, randomized, double-blind, double-dummy, placebo-controlled study.
VT-122 (Vicus Therapeutics, Morristown N.J.): patients entered a three week dose escalation period, with propranolol maximum at 120 mg, and etodolac maximum at 600 mg. VT-122 was administered in split doses in the morning and evening.
After the three week dose escalation period, patients were to continue therapy for four four-week cycles.
Secondary endpoint=lean body mass, overall survival, muscle function, symptom assessment.

[2] = tested on: advanced HCC; assay: Randomized investigator initiated trial: sorafenib alone (Group S) vs sorafenib after one week of propranolol and etodolac (Group SPE) (Example 2); assay type: in vivo, human
Procedure: Data on the use of the combination in advanced hepatocellular carcinoma patients are lacking.
Patients with advanced HCC were eligible for this randomized investigator initiated trial. Patients received propranolol (P) and etodolac (E) (or “PE”) daily for one week prior to starting sorafenib (S). PE was administered to maximize the therapeutic benefit and minimize side effects. The primary endpoint was survival.
Twenty-four patients were randomized to either sorafenib alone (Group S) or sorafenib after one week of propranolol and etodolac (Group SPE). Population: median age, 54.6 years; 74% male; BMI, 23.0; C-reactive protein (CRP), 69.3; cirrhosis (8.8%), fibrosis (50%), hepatitis B positive (85%). The patient population is summarized:
The study design is schematically illustrated in FIG. 6. Patients received PE daily for one week prior to starting S.
Dosing for PE was as follows: • 8 AM 20 mg propranolol+300 mg etodolac • 3 PM 20 mg propranolol • 8 PM 300 mg etodolac

SMILES: CNC(=O)c1cc(Oc2ccc(NC(=O)Nc3ccc(Cl)c(C(F)(F)F)c3)cc2)ccn1 [Sorafenib, 4-[4-[[4-chloro-3-(trifluoromethyl)phenyl]carbamoylamino]phenoxy]-N-methyl-pyridine-2-carboxamide]
- Kaplan-Meier median survival (95% CI), days [1]: 267 (32, NR) days
- percent of patients with loss in weight ([2]; FIG. 8): 50%
- 12 Month Survival, Percent ([2]; N=12 per group, table): 25.0%
- Hand foot skin reaction (HFS) grade 2 or 3, percent of patients ([2]; advanced HCC patients): 67%
- Median survival ([2]; advanced HCC patients): 10 months
- Twelve month survival ([2]; advanced HCC patients, 12 per group): 25.0%
- 12 Month Survival, Alive ([2]; number of patients alive of N=12): 3
